Measured values reported in ChEMBL document CHEMBL1201862, “PubChem BioAssay data set” (2004).
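Following 48 hours of exposure in 96-well plates, responses at five concentrations were used to interpolate endpoints linearly. Here, GI50 denotes the concentration required for 50% inhibition of growth.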 The source made the active and inactive calls. Cut-off read from the data, not from the text of the source: active = GI50 up to about 1.1 µM and inactive = higher. Peptide text beside a SMILES is read from it. * marks the point of attachment. OSu = O=C1CCC(=O)N1O*

Experiments:
Assay in all cases: DTP human tumour cell line panel, 48 h
[1] = tested on: NCI-H23
[2] = tested on: LOX IMVI
[3] = tested on: SW-620
[4] = tested on: TK-10
[5] = tested on: SNB-19
[6] = tested on: HOP-62
[7] = tested on: U-251
[8] = tested on: EKVX
[9] = tested on: UO-31
[10] = tested on: T47D
[11] = tested on: HT-29
[12] = tested on: MOLT-4
[13] = tested on: MDA-MB-435
[14] = tested on: A498
[15] = tested on: UACC-257
[16] = tested on: OVCAR-8
[17] = tested on: ACHN
[18] = tested on: NCI-H460
[19] = tested on: CCRF-CEM
[20] = tested on: RXF 393

| Compound | GI50 [1] | GI50 [2] | GI50 [3] | GI50 [4] | GI50 [5] | GI50 [6] | GI50 [7] | GI50 [8] | GI50 [9] | GI50 [10] | GI50 [11] | GI50 [12] | GI50 [13] | GI50 [14] | GI50 [15] | GI50 [16] | GI50 [17] | GI50 [18] | GI50 [19] | GI50 [20] |
| --- | --- | --- | --- | --- | --- | --- | --- | --- | --- | --- | --- | --- | --- | --- | --- | --- | --- | --- | --- | --- |
| C=C1C(=O)O[C@H]2[C@H]([C@H](C)CCCC(C)=O)O[C@H]([C@@]3(C)CCC(=O)O3)C[C@@H]12 | 43.4 µM (inactive) | 24.4 µM (inactive) | 46.3 µM (inactive) | 17.7 µM (inactive) | > 100 µM (inactive) | > 100 µM (inactive) | > 100 µM (inactive) | 79.3 µM (inactive) | > 100 µM (inactive) | 76 µM (inactive) | 90.2 µM (inactive) | 78.7 µM (inactive) | 38.5 µM (inactive) | > 100 µM (inactive) | 77.1 µM (inactive) | 63.4 µM (inactive) | 46.9 µM (inactive) | > 100 µM (inactive) | 26.9 µM (inactive) |  |
| COc1cccc(CN(C(=O)/C=C\Sc2ccccc2)C(C)(C)C)c1 | > 100 µM (inactive) | 32.5 µM (inactive) | > 100 µM (inactive) | > 100 µM (inactive) | > 100 µM (inactive) | > 100 µM (inactive) | > 100 µM (inactive) | 90.6 µM (inactive) | 48.3 µM (inactive) | 17.6 µM (inactive) | 31.1 µM (inactive) | 18.1 µM (inactive) | 86.5 µM (inactive) | > 100 µM (inactive) | 41 µM (inactive) | > 100 µM (inactive) | > 100 µM (inactive) |  | 0.435 µM (active) |  |
| CSC1NNC2(C(=O)N1)c1ccccc1-c1ccccc12 (stereo not drawn) | > 10 µM (inactive) | > 10 µM (inactive) | > 10 µM (inactive) | > 10 µM (inactive) | > 10 µM (inactive) | > 10 µM (inactive) |  | 8.32 µM (inactive) | > 10 µM (inactive) | 5.53 µM (inactive) | > 10 µM (inactive) | > 10 µM (inactive) | > 10 µM (inactive) |  | > 10 µM (inactive) | > 10 µM (inactive) | > 10 µM (inactive) | > 10 µM (inactive) | > 10 µM (inactive) | > 10 µM (inactive) |
| CC(C)c1ccc(/C=C2\CSCC3=C2N=C2SCC(=O)N2C3c2ccc(C(C)C)cc2)cc1 (stereo not drawn) | > 100 µM (inactive) | > 100 µM (inactive) | > 100 µM (inactive) | > 100 µM (inactive) |  | > 100 µM (inactive) | 64.3 µM (inactive) | > 100 µM (inactive) | 40.4 µM (inactive) | 57.9 µM (inactive) | > 100 µM (inactive) | 75.5 µM (inactive) | > 100 µM (inactive) |  | > 100 µM (inactive) | > 100 µM (inactive) | > 100 µM (inactive) | > 100 µM (inactive) | 68.1 µM (inactive) |  |
| CCCCNCCCNCCCNC(=O)c1csc(-c2csc(CCNC(=O)C(NC(=O)C(C)C(O)C(C)NC(=O)C(NC(=O)c3nc(C(CC(N)=O)NCC(N)C(N)=O)nc(N)c3C)C(OC3OC(CO)C(O)C(O)C3OC3OC(CO)C(O)C(OC(N)=O)C3O)c3c[nH]cn3)C(C)O)n2)n1 (stereo not drawn) | 0.083 µM (active) | 0.105 µM (active) | 15.2 µM (inactive) | 17.3 µM (inactive) | 6.89 µM (inactive) | 0.174 µM (active) | 0.489 µM (active) | 14 µM (inactive) | 0.372 µM (active) | 12.9 µM (inactive) | 25.1 µM (inactive) | 2.07 µM (inactive) | 18.7 µM (inactive) | 3.65 µM (inactive) | 14.3 µM (inactive) | 1.92 µM (inactive) | < 0.0187 µM (active) | 0.0264 µM (active) | 15.6 µM (inactive) |  |
| COC(=O)c1ccc(NC(=O)c2cc3c(cc2Br)OCO3)o1 | > 100 µM (inactive) | > 100 µM (inactive) | > 100 µM (inactive) | > 100 µM (inactive) | > 100 µM (inactive) | > 100 µM (inactive) | > 100 µM (inactive) | > 100 µM (inactive) | > 100 µM (inactive) | 90.6 µM (inactive) | > 100 µM (inactive) | 95.7 µM (inactive) | 32.7 µM (inactive) | > 100 µM (inactive) | > 100 µM (inactive) | > 100 µM (inactive) | > 100 µM (inactive) |  | > 100 µM (inactive) |  |
| O=C1NC(=O)[C@H]2C3C=CC([C@@H]12)[C@@H]1C(=O)NC(=O)[C@H]31 | > 100 µM (inactive) | > 100 µM (inactive) | > 100 µM (inactive) | > 100 µM (inactive) | > 100 µM (inactive) | > 100 µM (inactive) | > 100 µM (inactive) | > 100 µM (inactive) | > 100 µM (inactive) | > 100 µM (inactive) |  | > 100 µM (inactive) | > 100 µM (inactive) |  | > 100 µM (inactive) | > 100 µM (inactive) | > 100 µM (inactive) | > 100 µM (inactive) | > 100 µM (inactive) | > 100 µM (inactive) |
| Cc1ccc(/N=N/C(=N\c2ccc(F)cc2)c2ccc(N(CCC#N)CCC#N)cc2)cc1 | > 100 µM (inactive) |  | > 100 µM (inactive) | > 100 µM (inactive) | > 100 µM (inactive) | > 100 µM (inactive) | 36.2 µM (inactive) | 99.5 µM (inactive) | > 100 µM (inactive) | 47.1 µM (inactive) | > 100 µM (inactive) | > 100 µM (inactive) | 82.2 µM (inactive) | > 100 µM (inactive) | 30.3 µM (inactive) | 77.4 µM (inactive) | > 100 µM (inactive) | 33.5 µM (inactive) | 97.5 µM (inactive) | > 100 µM (inactive) |
| O=[N+]([O-])c1ccc2c(c1)c1nn2CCCCOc2nn(c3ccc([N+](=O)[O-])cc23)CCCCO1 | > 100 µM (inactive) | > 100 µM (inactive) |  |  | > 100 µM (inactive) | 0.743 µM (active) | > 100 µM (inactive) | > 100 µM (inactive) | > 100 µM (inactive) | > 100 µM (inactive) |  | > 100 µM (inactive) | > 100 µM (inactive) | > 100 µM (inactive) | > 100 µM (inactive) | > 100 µM (inactive) | > 100 µM (inactive) | > 100 µM (inactive) |  | > 100 µM (inactive) |
| NCCCCC(NC(=O)C(N)Cc1ccc(O)cc1)C(=O)NC(Cc1ccc(O)cc1)C(=O)NC(CCCCN)C(=O)ON1C(=O)CCC1=O (stereo not drawn) (H-YKYK-OSu; configuration not given here) | > 100 µM (inactive) |  | > 100 µM (inactive) | > 100 µM (inactive) | > 100 µM (inactive) | > 100 µM (inactive) | > 100 µM (inactive) | > 100 µM (inactive) | > 100 µM (inactive) | > 100 µM (inactive) | > 100 µM (inactive) | > 100 µM (inactive) |  | > 100 µM (inactive) | > 100 µM (inactive) | > 100 µM (inactive) | > 100 µM (inactive) | > 100 µM (inactive) |  | > 100 µM (inactive) |
| N#C/C(N)=C(C#N)/N=C/NCCO | > 100 µM (inactive) | > 100 µM (inactive) | > 100 µM (inactive) | > 100 µM (inactive) | > 100 µM (inactive) | > 100 µM (inactive) | > 100 µM (inactive) | > 100 µM (inactive) | > 100 µM (inactive) | > 100 µM (inactive) | > 100 µM (inactive) | > 100 µM (inactive) | > 100 µM (inactive) | > 100 µM (inactive) | > 100 µM (inactive) | > 100 µM (inactive) | > 100 µM (inactive) | > 100 µM (inactive) | > 100 µM (inactive) |  |
| CCCCOc1c(C(=O)O)cc(Br)cc1C(=O)O | > 100 µM (inactive) | > 100 µM (inactive) | > 100 µM (inactive) | > 100 µM (inactive) | > 100 µM (inactive) | > 100 µM (inactive) | > 100 µM (inactive) | > 100 µM (inactive) | > 100 µM (inactive) | > 100 µM (inactive) |  | > 100 µM (inactive) | > 100 µM (inactive) | > 100 µM (inactive) | > 100 µM (inactive) | > 100 µM (inactive) | > 100 µM (inactive) | > 100 µM (inactive) |  | > 100 µM (inactive) |
| Cc1ccc(Nc2nc3ccccc3c(=O)n2N)cc1 | > 100 µM (inactive) | > 100 µM (inactive) | > 100 µM (inactive) | > 100 µM (inactive) | > 100 µM (inactive) | > 100 µM (inactive) | > 100 µM (inactive) | > 100 µM (inactive) | > 100 µM (inactive) | > 100 µM (inactive) | 78.2 µM (inactive) | > 100 µM (inactive) | > 100 µM (inactive) |  | > 100 µM (inactive) | > 100 µM (inactive) | > 100 µM (inactive) | > 100 µM (inactive) | > 100 µM (inactive) | > 100 µM (inactive) |
| N#CC(C#N)=Cc1ccc(C=C2SC3=C(SCCS3)S2)s1 | 6.68 µM (inactive) |  | 4.38 µM (inactive) | 2.07 µM (inactive) | 44.1 µM (inactive) | 80.9 µM (inactive) | 12.4 µM (inactive) | > 100 µM (inactive) | > 100 µM (inactive) | > 100 µM (inactive) | 3.39 µM (inactive) | 2.59 µM (inactive) | 0.82 µM (active) | 10.4 µM (inactive) | 9.38 µM (inactive) | 29.9 µM (inactive) | > 100 µM (inactive) | 7.59 µM (inactive) | 2.48 µM (inactive) |  |
